Data: patent US20240299360A1, “ADAMTS INHIBITORS, PREPARATION METHODS AND MEDICINAL USES THEREOF” (Jiangsu Hengrui Pharmaceuticals Co., Ltd., priority 2020, published 2024)

Key:
[1] = system: mouse femoral head cartilage; assay: Mouse explant assay (IL-1α induced GAG release); format: cell-based; conditions: inhibition of GAG release, IL-1α 1 ng/ml, 72 hours; for inhibition at 2 µM: compound 2 μM; for inhibition at 20 µM: compound 20 μM
Method: In this assay, fresh mouse femoral head cartilage was treated with IL-1α protein (Sigma-Aldrich, catalog #12778) in culture media, which induces the cartilage catabolism. Then, the GAGs attached to the cleaved aggrecan fragments (released in the media) and the GAGs attached to the intact aggrecan were measured by dimethylmethylene blue dye in the Glycosaminoglycans Assay Kit (Chondrex, catalog #6022).
Femoral head cartilage samples were isolated from mice (25 days old, male, C57BL/6, from Charles River Lab) and put into 2.0 ml tubes filled-up with media (DMEM, 10% FBS, 4 mM Glutamine, penicillin-streptomycin, 20 mM HEPES). Two hundred μl of media without FBS was added to each well of a 48-well plate, and one piece of cartilage was transferred to a well in the plate. Then the media was aspirated, and compounds and IL-1α protein were added to the plate in a total volume of 400 μl of fresh media without FBS. The final concentration of IL-1α was 1 ng/ml. The plate was incubated at 37° C. for 72 hours in a humidified incubator with 5% CO2 supply.
The supernatant was transferred to a 1.5 ml tube and kept at −20° C. Each cartilage sample was transferred to another 1.5 ml tube containing 400 μl of freshly made papain solution. The papain solution contained 125 μg/ml papain (Sigma-Aldrich, catalog #P3125), 0.1 M sodium acetate (Sigma-Aldrich, catalog #S7899), pH 5.5 and 5 mM EDTA and 5 mM L-cysteine-HCl (Sigma-Aldrich, catalog #C7880). The cartilage samples were kept rocking in a 60° C. water bath for 24 hours. The lysates were vortexed for 10 seconds and spinned at 10,000 rpm for 2 minutes.
Both the supernatant and the lysate samples were diluted with PBS and mixed with 100 μl of dye from the Glycosaminoglycans Assay Kit. The optical density from each well was determined with a TECAN plate reader set to a wavelength of 525 nm.
The concentrations of GAGs in the supernatant and lysates were determined based on the standard curve with a dose range of chondroitin sulfate provided in the kit. The percentage of GAG release was calculated as the following
The test compound effect was expressed as the percent of inhibition using the following formula: […]

[2] = biological target: ADAMTS-4 recombinant protein (Homo sapiens (Human), UniProt O75173); assay: In vitro fluorescence (FRET-peptide) enzymatic assay of ADAMTS-4 activity; format: biochemical; conditions: FRET peptide substrate 15 μM, 10 nM enzyme, 37° C. 3 hours
Method: (§1) A FRET (fluorescence resonance energy transfer) peptide was cleaved by recombinant ADAMTS-4 or ADAMTS-5 proteins into two separate fragments resulting in an increase of fluorescence signal which was quantified. The peptide was 5-FAM-[…](5-TAMRA)K-NH2, customized from ANASPEC. ADAMTS-4 recombinant protein (catalog #4307-AD) and ADAMTS-5 recombinant protein (catalog #2198-AD) were purchased from R&D Systems.
(§2) An assay buffer containing 50 mM HEPES pH 7.5, 100 mM NaCl, 5 mM CaCl2, 0.1% CHAPS and 5% Glycerol was prepared. A volume of 2.5 μl of compound in the assay buffer was dispensed to a 384-well plate, and 2.5 μl of ADAMTS-4 or ADAMTS-5 protein (final concentration in the reaction was 10 nM) was added. The compounds and proteins were pre-incubated at room temperature for 15 minutes. Then, 5 μl of substrate was added to each well. The final substrate concentrations for ADAMTS-4 and ADAMTS-5 were 15 μM and 8 μM, respectively. The fluorescence signal in each well was determined, after incubation at 37° C. for 3 hours, on a TECAN plate reader (Excitation, 490 nm; Emission, 520 nm).
(§3) The data was inputted into GraphPad Prism, and the IC50 values were calculated using function “log (inhibitor) vs. response—Variable slope (four parameters)”. (See Table 1)

[3] = biological target: T1, ADAMTS-5 recombinant protein (Homo sapiens (Human), UniProt Q9UNA0); assay: In vitro fluorescence (FRET-peptide) enzymatic assay of ADAMTS-5 activity; format: biochemical; conditions: FRET peptide substrate 8 μM, 10 nM enzyme, 37° C. 3 hours
Method: as §1, §2, §3

[4] = biological target: T1, ADAMTS-5 recombinant protein; assay: In vitro ELISA of ADAMTS-5 activity (Aggrecan-IGD enzymatic assay); format: biochemical; conditions: aggrecan-IGD substrate, ARGSVIL-peptide ELISA, 37° C. 45 minutes
Method: In this assay, the enzymatic activity of recombinant ADAMTS-5 protein (catalog #2198-AD, R&D Systems) was assayed with a protein substrate, the aggrecan IGD protein. The aggrecan IGD protein is a polypeptide connecting human aggrecan globular domains 1 and 2 (T331-G458) expressed in E. Coli with a C-terminal His-tag (catalog #30411000, BIOTEZ). The enzymatic product ARGSVIL-peptide was detected using an ELISA kit from BioTEZ (catalog #30510111).
An assay buffer containing 50 mM HEPES pH 7.5, 100 mM NaCl, 5 mM CaCl2), 0.1% CHAPS and 5% Glycerol was prepared. Recombinant ADAMTS-5 protein was diluted to 0.3 nM in the assay buffer. Ten μl of […] and 10 μl of compound solution was transferred to each well of a 96-well plate and incubated at room temperature for 15 minutes. Substrate aggrecan-IGD was diluted to 100 nM with the assay buffer and 20 μl was added to each well. The plate was incubated at 37° C. for 45 minutes. After incubation, the newly generated epitope ARGSVIL-peptides were measured using the Aggrecanase Activity ELISA Assay Kit following the manufacturer's instructions. Then, 100 μl of stop solution was added and the absorbance of each well was read at 450 nm, using […] as reference on a TECAN plate reader.
A standard curve of the ELISA assay was generated in GraphPad Prism using Sigmoidal 4PL function and the corresponding peptide concentrations were calculated based on the standard curve. The IC50 values were calculated using function “log (inhibitor) vs. response—Variable slope (four parameters)”. (See Table 2).

ADAMTS-4 recombinant protein, sequence (O75173 213-685): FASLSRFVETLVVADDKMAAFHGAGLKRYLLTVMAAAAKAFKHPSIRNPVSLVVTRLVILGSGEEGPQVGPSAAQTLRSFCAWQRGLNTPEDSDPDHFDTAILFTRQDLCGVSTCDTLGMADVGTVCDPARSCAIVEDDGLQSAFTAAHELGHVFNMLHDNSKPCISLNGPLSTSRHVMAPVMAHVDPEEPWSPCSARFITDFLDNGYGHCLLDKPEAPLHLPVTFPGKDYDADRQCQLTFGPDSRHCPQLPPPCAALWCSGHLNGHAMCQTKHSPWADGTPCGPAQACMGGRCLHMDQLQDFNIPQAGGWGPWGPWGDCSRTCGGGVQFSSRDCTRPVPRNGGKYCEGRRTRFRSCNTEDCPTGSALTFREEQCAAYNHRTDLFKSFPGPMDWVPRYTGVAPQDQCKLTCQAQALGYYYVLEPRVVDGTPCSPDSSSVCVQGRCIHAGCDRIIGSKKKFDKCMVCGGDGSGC
T1 sequence (Q9UNA0 262-622): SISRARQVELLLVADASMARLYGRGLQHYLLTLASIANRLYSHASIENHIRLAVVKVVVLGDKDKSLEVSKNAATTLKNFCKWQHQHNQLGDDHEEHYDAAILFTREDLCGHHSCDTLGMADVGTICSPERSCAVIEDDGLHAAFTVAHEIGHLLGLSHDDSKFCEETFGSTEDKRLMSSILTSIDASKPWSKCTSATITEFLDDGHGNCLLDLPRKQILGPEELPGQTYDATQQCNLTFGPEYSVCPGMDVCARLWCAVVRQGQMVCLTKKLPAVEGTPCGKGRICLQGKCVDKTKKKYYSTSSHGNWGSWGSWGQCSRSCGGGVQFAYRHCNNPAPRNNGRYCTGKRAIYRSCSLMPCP

Row | Structure (SMILES) | IC50 [2] | IC50 [3] | IC50 [4] | inhibition at 2 µM [1] | inhibition at 20 µM [1]
1 | O=C1NC(=O)[C@](CCC(=O)N2Cc3cc(Cl)c(C(F)(F)F)cc3C2)(C2CC2)N1 [Example 40, (S)-5-(3-(5-chloro-6-(trifluoromethyl)isoindolin-2-yl)-3-oxopropyl)-5-cyclopropylimidazolidine-2,4-dione] | 42 nM | 25 nM | 92 nM | 2% | 52%
2 | COc1ccc2c(c1)CCN(C(=O)CC[C@@]1(C3CC3)NC(=O)NC1=O)CC2 [Example 5, (S)-5-cyclopropyl-5-(3-(7-methoxy-4,5-dihydro-1H-benzo [d]azepin-3 (2H)-yl)-3-oxopropyl)imidazolidine-2,4-dione] | 46 nM | 73 nM | 240 nM | 19% | 51%
3 | O=C1NC(=O)[C@](CCC(=O)N2Cc3cc(Br)c(C(F)(F)F)cc3C2)(C2CC2)N1 [Example 59, (S)-5-(3-(5-bromo-6-(trifluoromethyl)isoindolin-2-yl)-3-oxopropyl)-5-cyclopropylimidazolidine-2,4-dione] | 82 nM | 46 nM | 46 nM | 16% | 66%
4 | CC1CN(C(=O)CC[C@@]2(C3CC3)NC(=O)NC2=O)CCc2ccc(Cl)cc21 (stereo partly drawn) [Example 8, (5S)-5-(3-(8-chloro-1-methyl-4,5-dihydro-1H-benzo[d]azepin-3 (2H)-yl)-3-oxopropyl)-5-cyclopropylimidazolidine-2,4-dione] | 66 nM | 53 nM | 130 nM | 22% | 63%
5 | O=C1NC(=O)[C@](CCC(=O)N2Cc3ccc(C(F)(F)F)cc3C2)(C2CC2)N1 [Example 1, (S)-5-cyclopropyl-5-(3-oxo-3-(5-(trifluoromethyl)isoindolin-2-yl)propyl)imidazolidine-2,4-dione] | 60 nM | 88 nM | 140 nM | 27% | 61%
6 | O=C1NC(=O)[C@](CCC(=O)N2CCc3ccccc3CC2)(C2CC2)N1 [Example 9, (S)-5-cyclopropyl-5-(3-(4,5-dihydro-1H-benzo[d]azepin-3 (2H)-yl)-3-oxopropyl)imidazolidine-2,4-dione] | 42 nM | 37 nM | 56 nM | 22% | 55%

Now those with a lower IC50 [2], led by results:

Row | IC50 [2] | IC50 [3] | IC50 [4] | Structure (SMILES) | inhibition at 2 µM [1] | inhibition at 20 µM [1]
7 | 22 nM | 37 nM |  | O=C1NC(=O)[C@](CCC(=O)N2Cc3cc(Cl)c(Cl)cc3C2)(C2CC2)N1 [Example 20, (S)-5-cyclopropyl-5-(3-(5,6-dichloroisoindolin-2-yl)-3-oxopropyl)imidazolidine-2,4-dione] | 67% | 100%
8 | 19 nM | 12 nM | 25 nM | O=C1NC(=O)[C@](CCC(=O)N2CCc3ccc(C(F)(F)F)cc3CC2)(C2CC2)N1 [Example 45, (S)-5-cyclopropyl-5-(3-oxo-3-(7-(trifluoromethyl)-1,2,4,5-tetrahydro-3H-benzo[d]azepin-3-yl)propyl)imidazolidine-2,4-dione] | 45% | 96%
9 | 11 nM | 14 nM | 17 nM | O=C1NC(=O)C(CC(CO)C(=O)N2Cc3cc(Cl)c(Cl)cc3C2)(C2CC2)N1 (stereo not shown) [Example 42, 5-cyclopropyl-5-(3-(5,6-dichloroisoindolin-2-yl)-2-(hydroxymethyl)-3-oxopropyl)imidazolidine-2,4-dione] | 51% | 92%
10 | 20 nM | 16 nM |  | C[C@H]1CN(C(=O)CC[C@@]2(C3CC3)NC(=O)NC2=O)CCc2ccc(Cl)cc21 [Example 21, (S)-5-(3-((R)-8-chloro-1-methyl-1,2,4,5-tetrahydro-3H-benzo[d]azepin-3-yl)-3-oxopropyl)-5-cyclopropylimidazolidine-2,4-dione] | 39% | 100%
11 | 12 nM | 10 nM | 19 nM | C[C@@H]1c2cc(Cl)c(Cl)cc2CN1C(=O)CC[C@@]1(C2CC2)NC(=O)NC1=O [Example 66-2, (S)-5-cyclopropyl-5-(3-((R)-5,6-dichloro-1-methylisoindolin-2-yl)-3-oxopropyl)imidazolidine-2,4-dione] | 23% | 87%
12 | 28 nM | 32 nM |  | [2H]C1([2H])c2cc(Cl)c(Cl)cc2C([2H])([2H])N1C(=O)CC[C@@]1(C2CC2)NC(=O)NC1=O [Example 80, (S)-5-cyclopropyl-5-(3-(5,6-dichloroisoindolin-2-yl-1,1,3,3-d4)-3-oxopropyl)imidazolidine-2,4-dione] | 30% | 73%
13 | 30 nM | 66 nM | 48 nM | O=C1NC(=O)[C@](CCC(=O)N2Cc3ccc(C(F)F)cc3C2)(C2CC2)N1 [Example 52, (S)-5-cyclopropyl-5-(3-(5-(difluoromethyl)isoindolin-2-yl)-3-oxopropyl)imidazolidine-2,4-dione] | 10% | 48%
14 | 15 nM | 37 nM | 51 nM | O=C1NC(=O)[C@](CCC(=O)N2CCc3ccc(F)cc3CC2)(C2CC2)N1 [Example 44, (S)-5-cyclopropyl-5-(3-(7-fluoro-1,2,4,5-tetrahydro-3H-benzo[d]azepin-3-yl)-3-oxopropyl)imidazolidine-2,4-dione] | 13% | 70%
